Laboratory results reported in patent publication US9157917B2, “Applications of Indoloindole and Indoloquinoline dyes” (Biosynth AG, priority 2010, dated 2015).

Experiments:
[1] = Release of dyes from precursors through heat in PP tubes containing PE pellets; type: physicochemical; conditions: PP tubes and PE pellets (emptied and flushed with water) after heating for 40 min at 90° C.
Procedure: As a further example the release of Aldol™ 470-, 495-, and 515 dyes from various Aldol™ acetate precursors through heat is given: The compounds were incubated at room temperature and at 90° C. for 40 min in PP tubes containing PE pellets. […] Whereas for all tubes at room temperature neither coloration nor fluorescence was detected, the Aldol™ acetates but not the Aldol™ galactosides were instable at 90° C. and led to fluorescence of the PP and PE host (Table 2).

E. coli [2] = assay: Cultures with paraffin oil overlay
S. enteritidis [3] = assay: Cultures with paraffin oil overlay
[4] = Application of aqueous dye suspensions to PP tubes and PE pellets at different temperatures; type: physicochemical; conditions: for Fluorescence of PP tubes and PE pellets, comparison between dyes: 22° C., 37° C., 90° C.
Procedure: The application of dye to plastic can be improved by increasing the temperature. Aqueous suspensions of Aldol™ 470, 495, 515 and 518 dyes in PP tubes containing PE pellets were incubated at three different temperatures (22° C., 37° C., and 90° C.). The resulting fluorescence of PP tubes and PE pellets was much stronger after incubation at 90° C. for 5 hours than after 24 hours incubation at 37° C. or 22° C. Incubation at 37° C. led to more fluorescence than incubation at 22° C. Fluorescence after incubation at 22° C. was very weak, except for PE pellets incubated in the presence of Aldol™ 495 dye and Aldol™ 515 dye.

[5] = Fluorescence of IO dyes in various hosts; type: physicochemical
Procedure: In this description various IO dyes are given as illustrative examples (Scheme I) but these examples shall not limit the invention in any way. It was discovered that IO/IQ dyes have a strong solvatochromic effect. When, for example, the 470-, 495- and 515-dyes were dissolved in a series of solvents, the fluorescence of the solution was higher the lower the polarity of the solvent was. […] It was also discovered that the fluorescence color might change with the solvent used.

[6] = Excitation and emission spectra of dye in polypropylene; type: physicochemical; conditions: in polypropylene microtiter plate
Procedure: The excitation and emission spectra of the Aldol™ 495 dye in PP were measured in a standard plate reader using a polypropylene microtiter plate that has been incubated with broth containing Aldol™ 495 beta-D-galactoside and an E. coli culture. […] The optimal excitation is at 310 nm (FIG. 1).

[7] = tested on: various bacterial strains; assay: Nonanoate indicators in buffered peptone water in polystyrene plates; type: cell-based; conditions: 0.2 mM, polystyrene plate, 37° C., excitation 360 nm, emission 460 nm
Procedure: Buffered peptone water containing either 0.4 mM Aldol™ 495 nonanoate or 0.2 mM 4-methylumbelliferyl nonanoate was dispensed in a microtiter plate and inoculated with about 700 cfu/ml of various bacterial strains. […] An excitation wavelength of 360 nm was used for both dyes, the emission wavelength was 560 nm for the Aldol™ 495 dye and 460 nm for the 4-methylumbelliferone.

E. coli [8] = assay: Fluorescence of colonies on membrane filters; type: cell-based; conditions: Naked nutrient agar, 0.4 mM, 14-16 hours at 37° C.
[9] = Stamping on LDPE film, stability to treatments; type: physicochemical
Procedure: Three pieces of felt were soaked with ethanol containing 0.5 mM of Aldol™ 470, Aldol™ 495 or Aldol™ 515 dye respectively. A stamp was pressed first on the felt then on a piece of low density polyethylene film. The film was left to dry for 15 minutes and then exposed to various treatments (Table 4).

[10] = tested on: phosphatase coupled goat anti rabbit antibody; assay: Dot blot on nitrocellulose membrane; type: biochemical; conditions: 0.4 mM in assay buffer pH 9.5
Description: Western Blotting is a routine technique for protein analysis. A widely used, cost-effective and simple way for signal detection is the reaction of a chromogenic phosphatase indicator with alkaline phosphatase coupled to the secondary antibody, yielding a colored band or spot. The IO/IQ indicators offer an easy way for fluorescent and chromogenic western blotting based on the same principle as the common chromogenic western blotting, the only difference being the phosphatase indicator. […] In addition, after longer incubation the dots were also clearly identified under white light through their yellow color. Thus, IO/IQ indicators offer a way of performing chromogenic and fluorogenic blotting assay at the same time.
0.16 μg of beta-galactosidase in 4 μl of phosphate buffer was spotted on a nitrocellulose membrane. The membrane was dried for 15 min and then blocked in TBS-T (20 mM Tris-HCl, 150 mM NaCl, 0.05% Tween20, pH 7.5) with 5% BSA for one hour. Then the membrane was incubated with a rabbit anti-beta-galactosidase antibody in TBS-T/5% BSA for one hour, washed three times for 5 min in TBS-T, and incubated with a phosphatase coupled goat anti rabbit antibody in TBS-T/5% BSA for one hour. […]

E. coli [11] = assay: Peptone broth culture in tubes
[12] = molecular target: E. coli beta-galactosidase (Escherichia coli, UniProt P00722)
Procedure: 100 mM sodium phosphate buffer (pH 7.3) containing 1 mM MgCl2 and 0.5 mM Aldol™ 495 beta-D-galactoside, was distributed into glass, polystyrene and polypropylene tubes (two of each). Purified E. coli beta-galactosidase was added to half of the tubes, the other half serving as negative controls.

S. enteritidis [13] = assay: Peptone broth culture in tubes
[14] = paraffin oil overlay 0 μl, 16 h
[15] = paraffin oil overlay 0 μl, 21 h
[16] = paraffin oil overlay 0 μl, 40 h
[17] = paraffin oil overlay 50 μl, 16 h
[18] = paraffin oil overlay 50 μl, 21 h
[19] = paraffin oil overlay 50 μl, 40 h
[20] = paraffin oil overlay 300 μl, 16 h
[21] = paraffin oil overlay 300 μl, 21 h
[22] = paraffin oil overlay 300 μl, 40 h

Sequence of E. coli beta-galactosidase (P00722 2-1024): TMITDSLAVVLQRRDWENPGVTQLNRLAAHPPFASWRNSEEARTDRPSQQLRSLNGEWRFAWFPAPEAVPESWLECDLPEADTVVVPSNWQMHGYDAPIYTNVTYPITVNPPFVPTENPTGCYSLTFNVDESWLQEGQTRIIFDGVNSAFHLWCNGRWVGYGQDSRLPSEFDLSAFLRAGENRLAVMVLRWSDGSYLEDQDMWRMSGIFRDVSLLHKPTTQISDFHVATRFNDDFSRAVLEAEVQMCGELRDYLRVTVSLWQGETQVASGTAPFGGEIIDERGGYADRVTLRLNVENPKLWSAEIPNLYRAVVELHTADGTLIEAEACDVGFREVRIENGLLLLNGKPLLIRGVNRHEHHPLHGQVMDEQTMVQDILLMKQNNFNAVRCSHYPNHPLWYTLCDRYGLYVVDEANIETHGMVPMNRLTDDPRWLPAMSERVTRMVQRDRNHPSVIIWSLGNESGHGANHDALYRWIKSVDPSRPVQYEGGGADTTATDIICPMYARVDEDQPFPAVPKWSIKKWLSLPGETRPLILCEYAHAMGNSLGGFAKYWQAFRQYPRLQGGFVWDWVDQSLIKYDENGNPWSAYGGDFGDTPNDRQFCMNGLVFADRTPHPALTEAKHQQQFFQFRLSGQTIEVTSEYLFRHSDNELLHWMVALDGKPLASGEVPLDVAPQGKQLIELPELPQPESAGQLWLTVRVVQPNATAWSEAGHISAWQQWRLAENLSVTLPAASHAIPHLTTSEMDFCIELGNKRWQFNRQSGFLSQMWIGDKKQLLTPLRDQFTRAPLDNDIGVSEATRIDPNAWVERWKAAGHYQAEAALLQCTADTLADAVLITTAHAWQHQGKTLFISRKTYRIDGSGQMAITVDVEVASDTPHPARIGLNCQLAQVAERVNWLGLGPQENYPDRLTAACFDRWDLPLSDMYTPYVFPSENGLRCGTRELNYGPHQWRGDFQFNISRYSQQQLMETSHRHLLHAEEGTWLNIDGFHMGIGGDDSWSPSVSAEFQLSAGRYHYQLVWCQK

**Q.** With `CN(C)c1ccc(C(=O)c2ccccc2-n2cc(O[C@@H]3O[C@H](CO)[C@H](O)[C@H](O)[C@H]3O)c3ccc(Cl)cc32)cc1` [Aldol™ 518 beta-D-galactoside] as the compound, how does the Color of tube [1] read?
**A.** No color

**Q.** And the Fluorescence of tube [1]?
**A.** No fluorescence

**Q.** What about the Color (E. coli [2]; [14]) of the same compound?
**A.** Red

**Q.** And the Color (E. coli [2]; [15])?
**A.** Red

**Q.** And the Color (E. coli [2]; [16])?
**A.** Red

**Q.** And the Color (E. coli [2]; [17])?
**A.** Red

**Q.** What about the Color (E. coli [2]; [18]) of the same compound?
**A.** Red

**Q.** What about the Color (E. coli [2]; [19]) of the same compound?
**A.** Red

**Q.** What about the Color (E. coli [2]; [20]) of the same compound?
**A.** Red

**Q.** And the Color (E. coli [2]; [21])?
**A.** Red

**Q.** What about the Color (E. coli [2]; [22]) of the same compound?
**A.** Red

**Q.** What about the Color (S. enteritidis [3]; [14]) of the same compound?
**A.** Beige

**Q.** What about the Color (S. enteritidis [3]; [15]) of the same compound?
**A.** Beige

**Q.** What about the Color (S. enteritidis [3]; [16]) of the same compound?
**A.** Beige

**Q.** And the Color (S. enteritidis [3]; [17])?
**A.** Beige

**Q.** And the Color (S. enteritidis [3]; [18])?
**A.** Beige

**Q.** What about the Color (S. enteritidis [3]; [19]) of the same compound?
**A.** Beige

**Q.** And the Color (S. enteritidis [3]; [20])?
**A.** Beige

**Q.** What about the Color (S. enteritidis [3]; [21]) of the same compound?
**A.** Beige

**Q.** What about the Color (S. enteritidis [3]; [22]) of the same compound?
**A.** Beige

**Q.** Which Color of tube [1] does the source give for `COc1ccc(C(=O)c2ccccc2-n2cc(O[C@@H]3O[C@H](CO)[C@H](O)[C@H](O)[C@H]3O)c3ccccc32)c(OC)c1` [Aldol™ 470 beta-D-galactoside] here?
**A.** No color

**Q.** And the Fluorescence of tube [1]?
**A.** No fluorescence

**Q.** With `Cn1cccc1-c1c2n(c3ccccc13)-c1cc(Cl)ccc1C2=O` [Aldol™ 495 dye] as the compound, how does the “Fluorescence of PP tubes and PE pellets after 90° C. for 5 hours versus 24 hours at 37° C. or 22° C.” value [4] read?
**A.** much stronger

**Q.** What about the “Fluorescence of PP tubes and PE pellets, comparison between dyes” value [4] of the same compound?
**A.** more fluorescence than Aldol™ 515 dye

**Q.** What about the Fluorescence intensity ([5]; Acetone) of the same compound?
**A.** Strong

**Q.** What about the Fluorescence color ([5]; Mineral oil) of the same compound?
**A.** Green

**Q.** And the Fluorescence color ([5]; Paraffin oil)?
**A.** Green

**Q.** What about the Fluorescence intensity ([5]; Silicon oil) of the same compound?
**A.** Medium

**Q.** What about the Fluorescence color ([5]; Water) of the same compound?
**A.** None

**Q.** What about the Fluorescence intensity ([5]; Water) of the same compound?
**A.** None

**Q.** And the Emission maximum [6]?
**A.** 510 nm

**Q.** What about the Optimal excitation [6] of the same compound?
**A.** 310 nm

**Q.** With `CN(C)c1ccc(-c2c3n(c4ccccc24)-c2cc(Cl)ccc2C3=O)cc1` [Aldol™ 518 dye] as the compound, how does the “Fluorescence of PP tubes and PE pellets after 90° C. for 5 hours versus 24 hours at 37° C. or 22° C.” value [4] read?
**A.** much stronger

**Q.** With `CCCCCCCCC(=O)Oc1ccc2c(C)cc(=O)oc2c1` [4-methylumbelliferyl nonanoate, reference compound] as the compound, how does the “Fluorescence of C9 esterase negative strains and sterile control” value [7] read?
**A.** strong fluorescence

**Q.** With `COc1ccc(C(=O)c2ccccc2-n2cc(OC(C)=O)c3ccccc32)c(OC)c1` [Aldol ™ 470 acetate] as the compound, how does the Color of tube [1] read?
**A.** Light yellow

**Q.** For `COc1ccc(C(=O)c2ccccc2-n2cc(NC(=O)[C@H](C)N)c3ccccc32)c(OC)c1` [Aldol™ 470 L-alanine amide], which “Fluorescence of E. coli colonies” value (E. coli [8]) is on record?
**A.** No fluorescence

**Q.** For `CN(C)c1ccc(-c2c3n(c4ccccc24)-c2ccccc2C3=O)cc1` [Aldol™ 515 dye], which “Fluorescence of PP tubes and PE pellets after 90° C. for 5 hours versus 24 hours at 37° C. or 22° C.” value [4] is on record?
**A.** much stronger

**Q.** What about the “Fluorescence of PP tubes and PE pellets, comparison between dyes” value [4] of the same compound?
**A.** more fluorescence than Aldol™ 518 dye and Aldol™ 470 dye

**Q.** And the Fluorescence color ([5]; Acetone)?
**A.** Red

**Q.** What about the Fluorescence intensity ([5]; Acetone) of the same compound?
**A.** Medium

**Q.** What about the Fluorescence color ([5]; Ethanol) of the same compound?
**A.** Red

**Q.** And the Fluorescence intensity ([5]; Ethanol)?
**A.** Weak

**Q.** And the Fluorescence color ([5]; Mineral oil)?
**A.** Yellow

**Q.** What about the Fluorescence color ([5]; Silicon oil) of the same compound?
**A.** Red

**Q.** What about the Fluorescence color ([5]; Water) of the same compound?
**A.** Red

**Q.** And the “Stability of stamping on LDPE” value ([9]; under the conditions tested, compared with the other dyes)?
**A.** most stable

**Q.** With `CC(=O)Oc1cn(-c2ccccc2C(=O)c2ccc(N(C)C)cc2)c2ccccc12` [Aldol ™ 515 acetate] as the compound, how does the Color of tube [1] read?
**A.** Very light orange

**Q.** Which “Fluorescence or coloration of spot of alpha-amylase (negative control)” value [10] does the source give for `COc1ccc(C(=O)c2ccccc2-n2cc(OP(=O)(O)O)c3ccccc32)c(OC)c1` [Aldol™ 470 phosphate] here?
**A.** No fluorescence or coloration

**Q.** What does the source list for `Cn1cccc1C(=O)c1ccccc1-n1cc(O[C@@H]2O[C@H](CO)[C@H](O)[C@H](O)[C@H]2O)c2ccc(Cl)cc21` [Aldol™ 495 beta-D-galactoside]?
**A.** Fluorescence of PP tube under UV light (366 nm) (E. coli [11]; E. coli, 0.4 mM in peptone broth, 16 h incubation): Strong green; Fluorescence of glass tube (E. coli [11]; E. coli, 0.4 mM in peptone broth, glass test tubes): no fluorescence; Fluorescence of PP tube under UV light (366 nm) (E. coli [11]; E. coli, after autoclaving and emptying tube): Strong green; Fluorescence of PP tube under UV light (366 nm) (E. coli [11]; E. coli, after washing in dish-washer): Strong green; Stability under autoclaving conditions (E. coli [11]; in the medium tested): stable under autoclaving conditions; Color of tube [1]: No color; Fluorescence of tube [1]: No fluorescence; Color under white light ([12]; 0.5 mM, pH 7.3, glass, polystyrene and polypropylene tubes with beta-galactosidase): red-brown precipitate; Time until new polypropylene tube started to fluoresce after transfer of content ([12]; content of fluorescent PP tube transferred into new PP tube): around 10 minutes; Fluorescence of PP tube under UV light (366 nm) (S. enteritidis [13]; 0.4 mM in peptone broth, 16 h incubation): No fluorescence; Fluorescence of glass tube (S. enteritidis [13]; 0.4 mM in peptone broth, glass test tubes): no fluorescence; Fluorescence of PP tube under UV light (366 nm) (S. enteritidis [13]; after autoclaving and emptying tube): No fluorescence; Fluorescence of PP tube under UV light (366 nm) (S. enteritidis [13]; after washing in dish-washer): No fluorescence; Fluorescence of E. coli colonies (E. coli [8]): No fluorescence

**Q.** Which Color of tube [1] does the source give for `CC(=O)Oc1cn(-c2ccccc2C(=O)c2cccn2C)c2cc(Cl)ccc12` [Aldol ™ 495 acetate] here?
**A.** Very light green

**Q.** For `COc1ccc(-c2c3n(c4ccccc24)-c2ccccc2C3=O)c(OC)c1` [Aldol™ 470 dye], which “Fluorescence of PP tubes and PE pellets after 90° C. for 5 hours versus 24 hours at 37° C. or 22° C.” value [4] is on record?
**A.** much stronger

**Q.** And the Fluorescence color ([5]; Acetone)?
**A.** Green

**Q.** What about the Fluorescence intensity ([5]; Acetone) of the same compound?
**A.** Strong

**Q.** And the Fluorescence color ([5]; Ethanol)?
**A.** orange

**Q.** And the Fluorescence color ([5]; Mineral oil)?
**A.** Green

**Q.** And the Fluorescence intensity ([5]; Mineral oil)?
**A.** Medium

**Q.** And the Fluorescence color ([5]; Paraffin oil)?
**A.** Green

**Q.** What about the Fluorescence intensity ([5]; Paraffin oil) of the same compound?
**A.** Medium

**Q.** And the Fluorescence intensity ([5]; Silicon oil)?
**A.** Weak

**Q.** And the “Fluorescence of imprint on LDPE film” value ([9]; After soaking for 18 h in ethanol)?
**A.** No fluorescence
